# According to patent publication US10479781B2, “Peptidyl nitril compounds as dipeptidyl peptidase I inhibitors” (Prozymex A/S, priority 2015, dated 2019):
# pIC50: −log10 of the molar value.
# Key:
# [1] = Test for metabolic stability (human liver microsomes); assay type: in vitro ADME; conditions: pH 7.4; human liver microsomes 1.0 mg/mL, 1 mM NADPH, test compound 5 μM, 37° C.
# Method: Test for Metabolic Stability
# The test for metabolic stability was performed by Absorption System, Exton, Pa. 19341, USA.
# The test compound (DPPI inhibitor) was dissolved in 100% DMSO at a concentration of 10 mM. The reaction mixture, consisted of Mouse or Human Liver Microsomes (1.0 mg/mL), 1 mM NADPH, 100 mM Potassium Phosphate, pH 7.4, 10 mM Magnesium Chloride and test compound at a concentration of 5 μM.
# An aliquot of the reaction mixture (without cofactors) was incubated in a shaking water bath at 37° C. for 3 minutes. Another aliquot of the reaction mixture was prepared as the negative control. The test compound was added into both the reaction mixture and the negative control at a final concentration of 5 μM.
# The reaction was initiated by the addition of NADPH to 1 mM (not into the negative controls) and then incubated in a shaking water bath at 37° C. Aliquots (100 μL) were withdrawn at 0, 10, 20, 30, and 60 minutes or at 0, 15, 30 and 60 minutes and combined with 900 μL of ice-cold 50/50 acetonitrile/dH2O to terminate the reaction. A control (testosterone) was run simultaneously with the test compound in a separate reaction. […] The elimination half-lives associated with the disappearance of the test and control compounds were determined to compare their relative metabolic stability.
# DPPI [2] = molecular target: T1, DPPI (Homo sapiens, UniProt P53634); experiment: Cell based DPPI inhibition assay 2; design: endogenous in cells; host or cells: U937 cells; conditions: neutrophil elastase activity in U937 cells grown 48 hours with inhibitor
# T1 sequence (P53634 231-394 limits assumed): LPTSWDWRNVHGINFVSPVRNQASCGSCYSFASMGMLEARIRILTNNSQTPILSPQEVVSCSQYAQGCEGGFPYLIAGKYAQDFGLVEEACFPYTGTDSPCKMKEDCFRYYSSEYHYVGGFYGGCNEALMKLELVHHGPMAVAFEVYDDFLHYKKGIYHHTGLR
# T1 sequence (P53634 25-134 limits assumed): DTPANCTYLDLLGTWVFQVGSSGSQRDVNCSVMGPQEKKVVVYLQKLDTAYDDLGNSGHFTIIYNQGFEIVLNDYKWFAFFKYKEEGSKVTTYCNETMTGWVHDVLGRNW
# T1 sequence (P53634 395-463 limits assumed): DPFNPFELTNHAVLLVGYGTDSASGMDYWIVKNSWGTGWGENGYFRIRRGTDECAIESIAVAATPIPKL
# Method: Cell Based DPPI Inhibition Assay 2
# Using the cell based assay described below, the biological activity of the compounds of the invention or other DPPI inhibitors may be determined.
# Neutrophil elastase enzymatic activities in U937 cells grown in the presence of DPPI inhibitors were measured by methods modified from Méthot N; Rubin J; Guay D; Beaulieu C; Ethier D; Reddy T J; Riendeau D and Percival M D (2007) J Biol Chem, 282, 20836-20846.
# U937 cells were propagated in culture media (RPMI 1640, supplemented with 10% FBS, 10 mM Hepes, 1 mM sodium pyrovate, 100 units/ml of each of penicillin and streptomycin). Cells were seeded in 12-well plates at ≈0.2×10^6 cells/ml in volumes of 1.5 ml per well in the presence of no or increasing concentrations of DPPI inhibitor. 12 points in duplicate in the range of 0.01 nM to 10 μM inhibitor were tested. […]
# The activity of neutrophil elastase was determined by measuring the enzymatic release of chromogenic p-nitroaniline from the substrate MetOSuc-Ala-Ala-Pro-Val-pNA, which leads to an increase in absorbance at 405 nm. Assays were carried out in 96-well plates in a final volume of 200 μL at 37° C., and absorbance was measured 8 times during 21 minutes using a plate reader. IC50 was determined using a 4-parameter logistic equation in a non-linear curve fitting routine.
# DPPI [3] = molecular target: T1, DPPI; experiment: Human DPPI inhibition assay 2; assay type: biochemical; design: purchased UNIZYME Laboratories A/S; conditions: substrate Gly-Phe-paranitroanilide 750 μM, pH 4.5, 37° C.
# Method: Human DPPI Inhibition Assay 2
# Using this assay, the IC50 value of the compound of the invention may be determined using Gly-Phe-paranitroanilide as a DPPI specific substrate.
# Assay buffer: 20 mM citric acid (2.1 g citric acid), 150 mM NaCl (4.4 g NaCl) and 2 mM EDTA (370 mg EDTA) was dissolved in 500 mL H2O, and pH was adjusted to 4.5 with HCl.
# Substrate: Gly-Phe-paranitroanilide (Sigma Aldrich; Cat. No G0142) was used as the substrate for determination of IC50 values. Km was 2.2 mM. The substrate was solubilized in dimethylformamid to give a 0.2-0.5 M stock solution, which was then further diluted with stirring in assay buffer to a final concentration of 1 mM.
# DPPI: Human DPPI (obtained from UNIZYME Laboratories A/S, DK-2970 Hørsholm, Denmark) was stored at −20° C. in a buffer containing 2.5 mM Na-phosphate, 150 mM NaCl, 2 mM cysteamine, 50% glycerol, pH 7.0 at a concentration of 2.2 mg/mL (≈12 μM). This stock solution was diluted 800-3200 times in assay buffer to a concentration of about 4-15 nM.
# Assay conditions: The assay was performed in 96-well plates. […] The absorption was measured at 405 nm at 37° C. for every 90 seconds for 12 minutes or every 20 seconds for 4 minutes. […] IC50 was determined using a 4-parameter logistic equation in a non-linear curve fitting routine.
smiles,measurement,setting,value
"CN1CCN(Cc2ccc(-c3ccc(C[C@@H](C#N)NC(=O)C4(N)CCOCC4)c(F)c3)cc2)CC1 [PZ1101, (S)-4-amino-N-(1-cyano-2-(3-fluoro-4′-((4-methylpiperazin-1-yl)methyl)-[1,1′-biphenyl]-4-yl)ethyl)tetrahydro-2H-pyran-4-carboxamide]",half-life at 5 μM,[1],> 2 h
same,pIC50,DPPI [2],~8.60
same,pIC50,DPPI [3],~8.22
